Values of other authors as cited in patent US20220000751A1, “METHOD FOR PREPARING AND USING HAIR TREATMENT AGENTS WITH ORGANIC C1-C6-ALKOXY-SILANES” (Henkel AG & Co. KGaA, priority 2020, published 2022).

Details: 25° C.

solubility in water (in words)	SMILES	solubility in water
highly soluble	O=C(O)C1=NN(c2ccc(S(=O)(=O)O)cc2)C(=O)C1N=Nc1ccc(S(=O)(=O)O)cc1 (stereo not drawn) [Acid Yellow 23, 4,5-dihydro-5-oxo-1-(4-sulfophenyl)-4-((4-sulfophenyl)azo)-1H-pyrazole-3-carboxylic acid]	–
–	O=S(=O)(O)c1ccc(N=Nc2c(O)ccc3ccccc23)cc1 [Acid Orange 7, 4-[(2-hydroxy-1-naphthyl)azo]benzene sulphonate]	more than 7 g/L
–	CCN(Cc1cccc(S(=O)(=O)O)c1)c1ccc(C(=C2C=CC(=[N+](CC)Cc3cccc(S(=O)(=O)O)c3)C=C2)c2ccccc2S(=O)(=O)[O-])cc1 [Acid Blue 9]	more than 20 % by weight
